The values below come from patent US20100292214A1, “Compounds with Antiparasitic Activity, Applications thereof to the Treatment of Infectious Diseases Caused by Apicomplexans” (commissariat a l'Energie Atomique, priority 2007, published 2010).

As a reminder, the pIC50 is −log10 of the IC50, conventionally taken in molar units.

pIC50: −log10 of the molar value. Structures can show the parent of a compound that is named as a salt.

Experiment [1] concerns asynchronous 3D7 chloroquine-sensitive P. falciparum infected red blood cells. The experiment is described as follows: Labeled hypoxanthine incorporation assay (in vitro anti-malarial activity). The settings on record: Plasmodium falciparum, 3D7, Erythrocyte, 3D7 chloroquine-sensitive strain, infected RBC, 48 h contact, [3H]-hypoxanthine incorporation; two independent experiments in duplicates; read-out: IC50 assessed on Plasmodium Falciparum. Type of experiment: cell-based.

Experiment [2] concerns Toxoplasma gondii RH-β1 strain. The experiment is described as follows: microbe, parasite or virus in culture. In kind it is cell-based. As to conditions: Toxoplasma gondii, read-out: IC50 assessed on Toxoplama Gondii.

As for `O=C(OCCN(Cc1ccccc1)Cc1ccccc1OCc1ccccc1)N1CCC(n2c(=O)[nH]c3ccccc32)CC1` [Compound 99, 2-(benzyl(2-(benzyloxy)benzyl)amino)ethyl 4-(2-oxo-2,3-dihydro-1H-benzo[d]imidazol-1-yl)piperidine-1-carboxylate], the pIC50 was 6.07 in experiment [1] and 5.46 in experiment [2].

In the case of `CC(C)C[C@@H](COC(=O)N1CCC(n2c(=O)[nH]c3ccccc32)CC1)N(Cc1ccccc1)C(=O)OC(C)(C)C` [Compound 105, (S)-2-(benzyl(tert-butoxycarbonyl)amino)-4-methylpentyl 4-(2-oxo-2,3-dihydro-1H-benzo[d]imidazol-1-yl)piperidine-1-carboxylate], the pIC50 was 5.85 in experiment [1] and 5.66 in experiment [2].

For the compound `CC(C)C[C@@H](COC(=O)N1CCC(n2c(=O)[nH]c3ccccc32)CC1)N(Cc1ccccc1)Cc1ccccc1` [Compound 108, (S)-2-(dibenzylamino)-4-methylpentyl 4-(1,2-dihydro-2-oxobenzo[d]imidazol-3-yl)piperidine-1-carboxylate], the pIC50 in experiment [1] is 5.58; in experiment [2], 5.43.

Consider `CC(CCOC(=O)N1CCC(n2c(=O)[nH]c3ccccc32)CC1)N(Cc1ccccc1)Cc1ccccc1` (centres unmarked) [Compound 110, 3-(dibenzylamino)butyl 4-(1,2-dihydro-2-oxobenzo[d]imidazol-3-yl)piperidine-1-carboxylate], for which the pIC50 in experiment [1] was 5.83; in experiment [2], 5.44.

Turning to `O=C(OC[C@H](c1ccccc1)N(Cc1ccccc1)Cc1ccccc1)N1CCC(n2c(=O)[nH]c3ccccc32)CC1` [Compound 112, (S)-2-(dibenzylamino)-2-phenylethyl 4-(1,2-dihydro-2-oxobenzo[d]imidazol-3-yl)piperidine-1-carboxylate], the negative-log IC50 (pIC50) in experiment [1] is 6.30; in experiment [2], 5.43.

`O=C(OCCCN(Cc1ccccc1)Cc1ccc([N+](=O)[O-])cc1)N1CCC(n2c(=O)[nH]c3ccccc32)CC1` [Compound 114, 3-(benzyl(4-nitrobenzyl)amino)propyl 4-(2-oxo-2,3-dihydro-1H-benzo[d]imidazol-1-yl)piperidine-1-carboxylate hydrochloride]: the pIC50 in experiment [1] is 5.50; in experiment [2], 5.48.

As for `O=C(OCCN(Cc1ccccc1)Cc1ccc(Br)cc1)N1CCC(n2c(=O)[nH]c3ccccc32)CC1` [Compound 115, 2-(benzyl(4-bromobenzyl)amino)ethyl 4-(2-oxo-2,3-dihydro-1H-benzo[d]imidazol-1-yl)piperidine-1-carboxylate hydrochloride], the negative-log IC50 (pIC50) was 5.36 in experiment [1] and 5.49 in experiment [2].

As for `O=C(OC[C@@H](Cc1ccccc1)N(Cc1ccccc1)Cc1ccccc1)N1CCC(n2c(=O)[nH]c3ccccc32)CC1` [Compound 118, (R)-2-(dibenzylamino)-3-phenylpropyl 4-(1,2-dihydro-2-oxobenzo[d]imidazol-3-yl)piperidine-1-carboxylate], the pIC50 in experiment [1] is 5.83; in experiment [2], 5.54.

In the case of `O=C(OCCN(Cc1ccccc1)Cc1ccc(F)cc1)N1CCC(n2c(=O)[nH]c3ccccc32)CC1` [Compound 119, 2-(benzyl(4-fluorobenzyl)amino)ethyl 4-(2-oxo-2,3-dihydro-1H-benzo[d]imidazol-1-yl)piperidine-1-carboxylate hydrochloride], the values for the pIC50 in experiment [1] and in experiment [2] were 5.45 and 5.85, respectively.

Take `O=C(OCCN(CCCc1ccccc1)Cc1ccccc1)N1CCC(n2c(=O)[nH]c3ccccc32)CC1` [Compound 120, 2-(benzyl(3-phenylpropyl)amino)ethyl 4-(2-oxo-2,3-dihydro-1H-benzo[d]imidazol-1-yl)piperidine-1-carboxylate hydrochloride]: the pIC50 in experiment [1] is 5.44; in experiment [2], 5.77.

In the case of `COc1ccc(CN(CCOC(=O)N2CCC(n3c(=O)[nH]c4ccccc43)CC2)Cc2ccccc2)cc1` [Compound 121, 2-(benzyl(4-methoxybenzyl)amino)ethyl 4-(2-oxo-2,3-dihydro-1H-benzo[d]imidazol-1-yl)piperidine-1-carboxylate hydrochloride], the pIC50 is 5.46 in experiment [1] and 5.30 in experiment [2].

For the compound `COc1cccc(CN(CCOC(=O)N2CCC(n3c(=O)[nH]c4ccccc43)CC2)Cc2ccccc2)c1` [Compound 122, 2-(benzyl(3-methoxybenzyl)amino)ethyl 4-(2-oxo-2,3-dihydro-1H-benzo[d]imidazol-1-yl)piperidine-1-carboxylate hydrochloride], the figures for the pIC50 in experiment [1] and in experiment [2] were 5.43 and 5.76, respectively.

For `O=C(OCCN(Cc1ccccc1)Cc1cccc(Oc2ccccc2)c1)N1CCC(n2c(=O)[nH]c3ccccc32)CC1` [Compound 123, 2-(benzyl(3-phenoxybenzyl)amino)ethyl 4-(2-oxo-2,3-dihydro-1H-benzo[d]imidazol-1-yl)piperidine-1-carboxylate hydrochloride], the pIC50 in experiment [1] is 5.85; in experiment [2] it was 5.43.

Turning to `C[C@@H](COC(=O)N1CCC(n2c(=O)[nH]c3ccccc32)CC1)N(CCCc1ccccc1)Cc1ccccc1` [Compound 125, (S)-2-(benzyl(3-phenylpropyl)amino)propyl 4-(2-oxo-2,3-dihydro-1H-benzo[d]imidazol-1-yl)piperidine-1-carboxylate hydrochloride], the pIC50 is 5.38 in experiment [1] and 5.40 in experiment [2].

As to `COc1cccc(CN(Cc2ccccc2)[C@@H](C)COC(=O)N2CCC(n3c(=O)[nH]c4ccccc43)CC2)c1` [Compound 126, (S)-2-(benzyl(3-methoxybenzyl)amino)propyl 4-(2-oxo-2,3-dihydro-1H-benzo[d]imidazol-1-yl)piperidine-1-carboxylate hydrochloride], the values for the pIC50 in experiment [1] and in experiment [2] were 5.40 and 5.43, respectively.

On to `C[C@@H](COC(=O)N1CCC(n2c(=O)[nH]c3ccccc32)CC1)N(Cc1ccccc1)Cc1cccc(Cl)c1` [Compound 128, (S)-2-(benzyl(3-chlorobenzyl)amino)propyl 4-(2-oxo-2,3-dihydro-1H-benzo[d]imidazol-1-yl)piperidine-1-carboxylate hydrochloride], for which the negative logarithm of the IC50 (pIC50) in experiment [1] was 5.69; in experiment [2], 5.30.

For the compound `O=C(OCCN(Cc1ccccc1)Cc1ccnc2ccccc12)N1CCC(n2c(=O)[nH]c3ccccc32)CC1` [Compound 131, 2-(benzyl(quinolin-4-ylmethyl)amino)ethyl 4-(2-oxo-2,3-dihydro-1H-benzo[d]imidazol-1-yl)piperidine-1-carboxylate hydrochloride], the results for the pIC50 in experiment [1] and in experiment [2] were 5.53 and 5.98, respectively.

`Cn1c(CN(CCOC(=O)N2CCC(n3c(=O)[nH]c4ccccc43)CC2)Cc2ccccc2)cc2ccccc21` [Compound 132, 2-(benzyl((1-methyl-1H-indol-2-yl)methyl)amino)ethyl 4-(2-oxo-2,3-dihydro-1H-benzo[d]imidazol-1-yl)piperidine-1-carboxylate hydrochloride]: the figures for the pIC50 in experiment [1] and in experiment [2] were 5.38 and 5.92, respectively.

For `C[C@@H](COC(=O)N1CCC(n2c(=O)[nH]c3ccccc32)CC1)N(Cc1ccccc1)Cc1ccnc2ccccc12` [Compound 133, (S)-2-(benzyl(quinolin-4-ylmethyl)amino)propyl 4-(2-oxo-2,3-dihydro-1H-benzo[d]imidazol-1-yl)piperidine-1-carboxylate hydrochloride], the figures for the pIC50 in experiment [1] and in experiment [2] were 5.59 and 6.00, respectively.

As for `O=C(OCCCN(Cc1ccccc1)Cc1ccccn1)N1CCC(n2c(=O)[nH]c3ccccc32)CC1` [Compound 135, 3-(benzyl(pyridin-2-ylmethyl)amino)propyl 4-(2-oxo-2,3-dihydro-1H-benzo[d]imidazol-1-yl)piperidine-1-carboxylate hydrochloride], the negative logarithm of the IC50 (pIC50) was 5.44 in experiment [1] and 5.64 in experiment [2].

`C[C@@H](COC(=O)N1CCC(n2c(=O)[nH]c3ccccc32)CC1)N(Cc1ccccc1)Cc1cccc(OCc2ccccc2)c1` [Compound 136, (S)-2-(benzyl(3-(benzyloxy)benzyl)amino)propyl 4-(2-oxo-2,3-dihydro-1H-benzo[d]imidazol-1-yl)piperidine-1-carboxylate hydrochloride]: the pIC50 was 5.80 in experiment [1] and 6.10 in experiment [2].

With `C[C@@H](COC(=O)N1CCC(n2c(=O)[nH]c3ccccc32)CC1)N(Cc1ccccc1)Cc1cc2ccccc2c2ccccc12` [Compound 137, (S)-2-(benzyl(phenanthren-9-ylmethyl)amino)propyl 4-(2-oxo-2,3-dihydro-1H-benzo[d]imidazol-1-yl)piperidine-1-carboxylate hydrochloride], the pIC50 in experiment [1] is 5.79; in experiment [2] it was 6.15.

As for `C[C@@H](COC(=O)N1CCC(n2c(=O)[nH]c3ccccc32)CC1)N(Cc1ccccc1)Cc1cccc2ccccc12` [Compound 138, (S)-2-(benzyl(naphthalen-1-ylmethyl)amino)propyl 4-(2-oxo-2,3-dihydro-1H-benzo[d]imidazol-1-yl)piperidine-1-carboxylate hydrochloride], the results for the pIC50 in experiment [1] and in experiment [2] were 5.59 and 5.43, respectively.

For the compound `C[C@@H](COC(=O)N1CCC(n2c(=O)[nH]c3ccccc32)CC1)N(Cc1ccccc1)Cc1cccs1` [Compound 139, (S)-2-(benzyl(thiophen-2-ylmethyl)amino)propyl 4-(2-oxo-2,3-dihydro-1H-benzo[d]imidazol-1-yl)piperidine-1-carboxylate hydrochloride], the negative logarithm of the IC50 (pIC50) in experiment [1] was 5.47; in experiment [2], 5.30.

In the case of `C[C@@H](COC(=O)N1CCC(n2c(=O)[nH]c3ccccc32)CC1)N(Cc1ccccc1)Cc1ccccn1` [Compound 140, (S)-2-(benzyl(pyridin-2-ylmethyl)amino)propyl 4-(2-oxo-2,3-dihydro-1H-benzo[d]imidazol-1-yl)piperidine-1-carboxylate hydrochloride], the figures for the negative-log IC50 (pIC50) in experiment [1] and in experiment [2] were 5.41 and 5.74, respectively.
